The text below walks through data of patent US20190275012A9, “SUBSTITUTED THIAZOLO-PYRIDINE COMPOUNDS AS MALT1 INHIBITORS” (Lupin Limited, priority 2016, published 2019).

The IC50 is the concentration at which inhibition is half-maximal.

Experiment [1] relates to NF-kB transcriptional activity in HEK-293-NF-kB-Luc cell line overexpressing MALT1. The experiment in a line: NF-kB reporter assay (luciferase, MALT1 stably overexpressed). The experiment is classed as cell-based. As to conditions: Homo sapiens, 24 h, HEK-293-NF-kB-Luc cells stably overexpressing MALT1, 24 h treatment, Bright Glo luminescence; read-out: NF-kB inhibition IC50. The method, boiled down:
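Inhibition of NF-κB activity was expressed relative to 0.1% DMSO wells, from luminescence after 10 min Bright Glo at ambient temperature. Compounds had been applied for 24 h to adhered MALT1-overexpressing HEK-293 NF-κB luciferase reporter cells.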
Background: A reporter such as luciferase makes a cellular process visible.

The test system of the next experiment is OCI-Ly-10 cells. As to the kind of experiment: Anticancer assay (14 days), cell viability by CCK-8. The experiment is classed as cell-based. Particulars: Homo sapiens, OCI-Ly10, 336 h, 14 days treatment, fresh treatment every 5th day, CCK-8 viability, read-out: Ly-10 (14d) inhibition IC50. As for the experimental part:
OCI-Ly-10 cells (UHN, Canada) seeded in culture media (IMDM+20% FBS) in 96-well plates were treated with various concentrations of the test compounds. Cells were treated for a period of 14 days (13-15 days depending on the confluency of cells) with fresh treatments every 5th day. After the first treatment, for all subsequent treatments, the cells were centrifuged, the spent media was removed and fresh media containing the test compound was added. Cell viability was assessed using CCK-8 kit (Dojindo Laboratories, China) as per manufacturer's instructions. Plates were read in colorimeter and absorbance was detected. (Detection at 450 nm; Background correction at 650 nm). % inhibition was calculated relative to the samples containing media with 0.1% DMSO alone as per the following formula

A further experiment deals with T1, full length MALT1 enzyme (Homo sapiens, UniProt Q9UDY8).
T1 construct: a fluorescence based assay with full length MALT1 enzyme
T1 sequence (Q9UDY8 1-824): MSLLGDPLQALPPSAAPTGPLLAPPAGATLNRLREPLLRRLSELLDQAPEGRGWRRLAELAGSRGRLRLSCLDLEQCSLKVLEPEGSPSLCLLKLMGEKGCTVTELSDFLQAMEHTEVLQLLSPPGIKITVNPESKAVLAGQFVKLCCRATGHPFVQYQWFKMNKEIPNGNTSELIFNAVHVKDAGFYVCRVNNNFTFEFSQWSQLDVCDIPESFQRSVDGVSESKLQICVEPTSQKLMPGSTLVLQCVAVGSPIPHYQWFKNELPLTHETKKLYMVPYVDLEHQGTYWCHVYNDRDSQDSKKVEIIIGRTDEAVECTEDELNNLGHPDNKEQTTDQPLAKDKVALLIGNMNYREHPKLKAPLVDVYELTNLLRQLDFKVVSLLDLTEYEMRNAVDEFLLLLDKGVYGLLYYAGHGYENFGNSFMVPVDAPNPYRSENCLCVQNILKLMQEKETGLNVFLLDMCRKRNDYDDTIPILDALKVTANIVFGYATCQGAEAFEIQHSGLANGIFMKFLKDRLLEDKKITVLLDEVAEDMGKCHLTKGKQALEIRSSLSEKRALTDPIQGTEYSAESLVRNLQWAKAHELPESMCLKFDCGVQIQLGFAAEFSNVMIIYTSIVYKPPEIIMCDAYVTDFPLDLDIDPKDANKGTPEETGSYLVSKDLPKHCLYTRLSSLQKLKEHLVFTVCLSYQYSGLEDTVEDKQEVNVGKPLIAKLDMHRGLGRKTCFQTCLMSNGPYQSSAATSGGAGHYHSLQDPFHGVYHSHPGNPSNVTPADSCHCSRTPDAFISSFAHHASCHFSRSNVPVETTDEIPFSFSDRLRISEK
As to the kind of experiment: MALT1 biochemical assay (fluorescence based, Ac-Leu-Arg-Ser-Arg-AMC cleavage). Particulars: full length MALT1 protein, 2 h pre-incubation at RT, tetrapeptide substrate Ac-Leu-Arg-Ser-Arg-AMC, read-out: Malt 1 inhibition IC50. In short, it runs like this: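 Full-length MALT1 (100-300 ng/well) was pre-incubated with compound for 2 h at RT, then 100 μM Ac-LRSR-AMC was added for 4-12 h. Buffer was 50 mM MES, 150 mM NaCl, 0.1% CHAPS, 1 M ammonium citrate, 10 mM DTT, pH 7, with 0.5% DMSO. IC50 was derived from AMC fluorescence (ex 360/em 460 nm).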

With `CCOC(C)c1c(NC(=O)Nc2cnc(-n3nccn3)c(Cl)c2)cnc2sc(C)nc12` (racemic) [Compound 164, 1-(5-Chloro-6-(2H-1,2,3-triazol-2-yl)pyridin-3-yl)-3-(7-(1-ethoxyethyl)-2-methylthiazolo[5,4-b]pyridin-6-yl)urea], the results for the IC50 (in experiment [1]; with OCI-Ly-10 cells) were 1 to 100 nM and 101 to 250 nM, respectively.
With `COCC1CCCN(c2c(NC(=O)Nc3cnc(OC)c(Cl)c3)cnc3sc(C)nc23)C1` (single isomer, unassigned) [Compound 51b, 1-(5-chloro-6-methoxypyridin-3-yl)-3-(7-(3-(methoxymethyl)piperidin-1-yl)-2-methylthiazolo[5,4-b]pyridin-6-yl)urea], in the experiment on OCI-Ly-10 cells, the IC50 lay in the range of 501 to 1500 nM.
On the same count and under the same terms, the value for `COc1nc(-n2ccnn2)c(Cl)cc1NC(=O)Nc1cnc2sc(C)nc2c1C(C)OC` (single isomer, unassigned) [Compound 91b, 1-(5-Chloro-2-methoxy-6-(1H-1,2,3-triazol-1-yl)pyridin-3-yl)-3-(7-(1-methoxyethyl)-2-methylthiazolo[5,4-b]pyridin-6-yl)urea] was 26 to 100 nM.
For the molecule `Cc1nc2c(C3CCCO3)c(NC(=O)Nc3cnc(-n4nccn4)c(Cl)c3)cnc2s1` (single isomer, unassigned) [Compound 136b, 1-(5-Chloro-6-(2H-1,2,3-triazol-2-yl)pyridin-3-yl)-3-(2-methyl-7-(tetrahydrofuran-2-yl)thiazolo[5,4-b]pyridin-6-yl)urea], the concentration for half-maximal inhibition (IC50) in experiment [1] lay in the range of 1 to 100 nM; in the experiment with OCI-Ly-10 cells it was 101 to 250 nM.
`COC(C)c1c(NC(=O)Nc2ccc(-c3nnco3)c(Cl)c2)cnc2sc(C)nc12` (single isomer, unassigned) [Compound 203b, (S) or (R)-1-(3-Chloro-4-(1,3,4-oxadiazol-2-yl)phenyl)-3-(7-(1-methoxyethyl)-2-methylthiazolo[5,4-b]pyridin-6-yl)urea]: the figures for the IC50 (in experiment [1]; in the experiment on OCI-Ly-10 cells) were 1 to 100 nM and 26 to 100 nM, respectively.
As for `COC(C)c1c(NC(=O)Nc2cnc(-n3nccn3)c(C(F)F)c2)cnc2sc(C)nc12` (single isomer, unassigned) [Compound 205b, (S) or (R)-1-(5-(Difluoromethyl)-6-(2H-1,2,3-triazol-2-yl)pyridin-3-yl)-3-(7-(1-methoxyethyl)-2-methylthiazolo[5,4-b]pyridin-6-yl)urea], the concentration for half-maximal inhibition (IC50) in experiment [1] was in the range of 101 to 500 nM; with OCI-Ly-10 cells, 101 to 250 nM.
Regarding `COC(C)c1c(NC(=O)Nc2ccc(-n3nccn3)c(C#N)c2)cnc2sc(C)nc12` (single isomer, unassigned) [Compound 208b, (S) or (R)-1-(3-Cyano-4-(2H-1,2,3-triazol-2-yl)phenyl)-3-(7-(1-methoxyethyl)-2-methylthiazolo[5,4-b]pyridin-6-yl)urea], the IC50 in the experiment with OCI-Ly-10 cells lay in the range of 101 to 250 nM.
Same read-out and setting: the value for `COCCc1c(NC(=O)Nc2cnc(OC)c(Cl)c2)cnc2sc(C)nc12` [Compound 33, 1-(5-Chloro-6-methoxypyridin-3-yl)-3-(7-(2-methoxyethyl)-2-methylthiazolo[5,4-b]pyridin-6-yl)urea] was 501 to 1500 nM.
On the same count and under the same terms, to `COCC(CN(C)c1c(NC(=O)Nc2cnc(-n3nccn3)c(Cl)c2)cnc2sc(C)nc12)OC` (stereo not shown) [Compound 43, 1-(5-Chloro-6-(2H-1,2,3-triazol-2-yl)pyridin-3-yl)-3-(7-((2,3-dimethoxypropyl)(methyl)amino)-2-methylthiazolo[5,4-b]pyridin-6-yl)urea] belongs 26 to 100 nM.
The same measure, in the same setting: the value for `COCCN(C)c1c(NC(=O)Nc2cnc(OC)c(Cl)c2)cnc2sc(C)nc12` [Compound 45, 1-(5-Chloro-6-methoxypyridin-3-yl)-3-(7-((2-methoxyethyl)(methyl)amino)-2-methylthiazolo[5,4-b]pyridin-6-yl)urea] was 501 to 1500 nM; that for `Cc1nc2c(C3CC3)c(NC(=O)Nc3cnc(-n4ccnn4)c(Cl)c3)cnc2s1` [Compound 61, 1-(5-Chloro-6-(1H-1,2,3-triazol-1-yl)pyridin-3-yl)-3-(7-cyclopropyl-2-methylthiazolo[5,4-b]pyridin-6-yl)urea] was 501 to 1500 nM.
With `Cc1nc2c(C(C3CC3)N(C)C)c(NC(=O)Nc3cnc(-n4nccn4)c(C(F)(F)F)c3)cnc2s1` (stereo not shown) [Compound 76a, 1-(6-(2H-1,2,3-Triazol-2-yl)-5-(trifluoromethyl)pyridin-3-yl)-3-(7-(cyclopropyl(dimethylamino)methyl)-2-methylthiazolo[5,4-b]pyridin-6-yl)urea], in the experiment with OCI-Ly-10 cells, the 50% inhibitory concentration (IC50) is 101 to 250 nM.
Turning to `COc1ncc(NC(=O)Nc2cnc3sc(C)nc3c2N(C)C)cc1Cl` [Compound 110, 1-(5-Chloro-6-methoxypyridin-3-yl)-3-(7-(dimethylamino)-2-methylthiazolo[5,4-b]pyridin-6-yl)urea], the IC50 is 51 to 100 nM on full length MALT1 enzyme and 501 to 1500 nM in experiment [1].
Taken in the same sequence, the figures for `Cc1nc2c(C3CC3)c(NC(=O)Nc3ccc(-n4ccnn4)c(Cl)c3)cnc2s1` [Compound 169, 1-(3-Chloro-4-(1H-1,2,3-triazol-1-yl)phenyl)-3-(7-cyclopropyl-2-methylthiazolo[5,4-b]pyridin-6-yl)urea] were 1 to 50 nM and 101 to 500 nM.
Take `Cc1nc2c(C3CC3)c(NC(=O)Nc3cc(Cl)c(-n4ccnn4)c(Cl)c3)cnc2s1` [Compound 170, 1-(7-Cyclopropyl-2-methylthiazolo[5,4-b]pyridin-6-yl)-3-(3,5-dichloro-4-(1H-1,2,3-triazol-1-yl)phenyl)urea]: the IC50 fell in the range of 1 to 50 nM at full length MALT1 enzyme and 101 to 500 nM in experiment [1].
With `Cc1ncn(-c2ccc(NC(=O)Nc3cnc4sc(C)nc4c3C3CC3)cc2C#N)n1` [Compound 171, 1-(3-Cyano-4-(3-methyl-1H-1,2,4-triazol-1-yl)phenyl)-3-(7-eyelopropyl-2-methylthiazolo[5,4-b]pyridin-6-yl)urea], the half-inhibitory concentration (IC50) on full length MALT1 enzyme is 51 to 100 nM; in experiment [1] it was 101 to 500 nM.
For `Cc1nc2c(C3CC3)c(NC(=O)Nc3ccc(-n4ncnc4C)c(C#N)c3)cnc2s1` [Compound 172, 1-(3-Cyano-4-(5-methyl-1H-1,2,4-triazol-1-yl)phenyl)-3-(7-eyelopropyl-2-methylthiazolo[5,4-b]pyridin-6-yl)urea] the same measures were 51 to 100 nM and 501 to 1500 nM.
Taken in the same sequence, the figures for `COCc1c(NC(=O)Nc2cnc(-n3nccn3)c(Cl)c2)cnc2sc(C)nc12` [Compound 176, 1-(5-Chloro-6-(2H-1,2,3-triazol-2-yl)pyridin-3-yl)-3-(7-(metdoxymethyl)-2-methylthiazolo[5,4-b]pyridin-6-yl)urea] were 1 to 50 nM and 101 to 500 nM.
For `Cc1nc2c(C3(C)CC3)c(NC(=O)Nc3ccc(-n4nccn4)c(Cl)c3)cnc2s1` [Compound 179, 1-(3-Chloro-4-(2H-1,2,3-triazol-2-yl)phenyl)-3-(2-methyl-7-(1-methylcyclopropyl)thiazolo[5,4-b]pyridin-6-yl)urea] the same measures were 1 to 50 nM and 1 to 100 nM.
Turning to `Cc1nc2c(C(C)C)c(NC(=O)Nc3cnc(-n4nccn4)c(C(F)(F)F)c3)cnc2s1` [Compound 191, 1-(6-(2H-1,2,3-triazol-2-yl)-5-(trifluoromethyl)pyridin-3-yl)-3-(7-isopropyl-2-methylthiazolo[5,4-b]pyridin-6-yl)urea], the 50% inhibitory concentration (IC50) on full length MALT1 enzyme lay within 1 to 50 nM; in experiment [1], 1 to 100 nM.
In the case of `Cc1nc2c(C3CC3)c(NC(=O)Nc3cc(Cl)cnc3OCCN(C)C)cnc2s1` [Compound 195, 1-(5-Chloro-2-(2-(dimethylamino)ethoxy)pyridin-3-yl)-3-(7-cyclopropyl-2-methylthiazolo[5,4-b]pyridin-6-yl)urea], the IC50 at full length MALT1 enzyme was 51 to 100 nM; in experiment [1], 1 to 100 nM.
